Source: PMC10226132, “First-in-Class Selective Inhibitors of the Lysine Acetyltransferase KAT8” (Journal of Medicinal Chemistry, 2023)

Tests used:
KDAC2, 3, 6, and 8 = tested on: KDAC2, 3, 6, and 8; set-up: method as in PMID 26718586; conditions: cited from earlier work
[1] = tested on: HOXA9 mRNA in HCT116 cells; experiment: qRT-PCR of HOXA9 mRNA in HCT116 cells; assay type: cell-based, human; conditions: HCT116, 100 μM, 48 h
Experimental: Total RNA was isolated from cells after 48 h of treatment with compounds 19 and 34 (100 μM) using TRIzol reagent (Life Technologies) following the manufacturer’s instructions. cDNA was obtained by reverse transcription using a SensiFast cDNA Synthesis kit (Meridian Bioscience). qRT-PCR was performed using a Luna Universal qPCR Master Mix (BioLabs) and detected by Quant Studio3. The fold change of gene expression data was calculated by using the ddCT method. All samples were run in sextupled, and the results were presented as mean ± SEM. Detailed sequence of the primers used in the experiments can be found in the list below. • UCP2—Forward: 5′-[…]-3′ • Reverse 5′-[…]-3′ • HOXA9 — Forward: 5′-[…]-3′ • Reverse: 5′-[…]-3′

[2] = tested on: LC3 and p62 in HeLa cells; experiment: Western blot of autophagic markers in HeLa cells; assay type: cell-based, human; conditions: increasing doses, 48 h
Experimental: For WB experiments, the cells were lysed in RIPA buffer supplemented with 1× […] protease inhibitor cocktail (Sigma-Aldrich, S8830); 20 μg of total protein was resolved in 13.5% gels by SDS-PAGE. Then, the proteins were transferred to nitrocellulose membranes (Biorad Laboratories). Membranes were blocked for 1 h and incubated overnight with the appropriate primary antibody at 4 °C. After incubation, membranes were washed and incubated with the appropriate secondary antibody (Biorad Laboratories) for 1 h at room temperature. Following primary rabbit monoclonal antibodies H4K16Ac (1:1000, E2B8W, Rabbit mAb#13534, Cell Signalling Technology), KAT8 (1:1000, D5T3R Rabbit mAb #46862 Cell Signalling Technology), GAPDH (1:1000, sc-32233, Santa Cruz Biotechnologies), anti-LC3B (Sigma-Aldrich, L7543), anti-SQSTM1/p62 (Santa Cruz Biotechnology, sc-28,359), and anti-GAPDH (Santa Cruz Biotechnology, sc-32,233). Secondary antibodies: anti-mouse (Bio-Rad Laboratories, 1,706,515) or anti-rabbit (Bio-Rad Laboratories, 1,706,516) IgG-horseradish peroxidase-conjugated antibodies. Detection was performed by ECL Western Blotting Substrate (Biorad Laboratories). Images of blots were acquired through the ChemiDoc Imaging Systems (Biorad Laboratories). The band signals were quantified using ImageJ, and values were normalized to relative controls, depending on the analysis.

Row | SMILES | IC50 (KDAC2, 3, 6, and 8) | HOXA9 mRNA levels [1] | LC3-II/-I ratio and p62 autophagic markers (WB), HeLa [2]
1 | CC1=NN(c2ccc(C(=O)O)cc2)C(=O)/C1=C\c1ccc(-c2cc(C)c(C)cc2[N+](=O)[O-])o1 [VII (C646), reference compound] | 7 to 25 µM |  | 
2 | O=C(O)c1ccc(N2N=C(c3ccccc3)/C(=C/c3ccc[nH]3)C2=O)cc1 [Compound 34, (Z)-4-(4-((1H-Pyrrol-2-yl)methylene)-5-oxo-3-phenyl-4,5-dihydro-1H-pyrazol-1-yl)benzoic Acid] |  | downregulating also HOXA9 | A similar response
